Data set [1] is described as follows: Thiamine levels in plasma and erythrocytes after oral administration of the medicament with Benfotiamin. In kind it is in vivo. The conditions noted are these: comparator not printed in b22 (Thiaminhydrochlorid).
Data set [2] is described as follows: Availability and passage of the blood-brain barrier, Benfotiamin compared with Thiaminhydrochlorid. In kind it is in vivo.
[3] abbreviates: in contrast to Thiaminhydrochlorid.

In the case of `CC(=C(CCOP(=O)(O)O)SC(=O)c1ccccc1)N(C=O)Cc1cnc(C)nc1N` [Benfotiamin], in data set [1], the “höhere Anstiege von Thiamin und Thiamindiphosphat-coenzymen in den Erythrozyten” value is “ca. 130 -fach” and the “höhere Plasmaspiegel an Thiamin” value is 10 -fach. For the same compound, the Verfügbarkeit entry in data set [2] (compared with Thiaminhydrochlorid) was “besser verfügbar als Thiaminhydrochlorid”. Also, in data set [2] (setting [3]), the Blut-Hirn-Schranke result is listed as “passiert” and the Liquor cerebrospinalis entry was “anreichert”.
